Experimental data from PubChem BioAssay AID179 (DTP/NCI, 2004).
Active and inactive are the calls of the source.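 The calls were made as follows: active = compounds giving half or more protection of infected cells from virus-caused growth loss, again on retest; inactive = the rest.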 Where a SMILES comes first, the peptide text is derived from it.

Test system: CEM cells HIV-1 protection, formazan growth assay
Assay: NCI AIDS Antiviral Assay
Settings: for IC50: measured here: growth of uninfected CEM cells
Procedure, shortened: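 CEM (human) cells, HIV-1 infected vs uninfected, 5-point dosing, formazan growth read-out. Retest threshold 50% protection.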

COC(=O)c1c(C)cc2c(c1O)C1(O)C(=O)c3cc4c(c(O)c3C(=O)C1(OC)C(O)C2)C(=O)C=C(NC1OC(C)C(OC)C(O)C1OC)C4=O (stereo not drawn)
outcome: inactive

N#Cc1n[nH]c2nc(=S)sc(N)c12
EC50: > 1200 µM | IC50: 891 µM

OC(c1cc2ccccc2o1)c1cc2ccccc2s1 (stereo not drawn)
EC50: > 200 µM | IC50: 51.3 µM

CCOP1(=O)CC(C)=C(Cl)C(O)C1 (stereo not drawn)
EC50: > 200 µM | IC50: > 200 µM

CC(=O)c1sc2[n+](c1C)C(=O)/C(=C\c1ccccc1Cl)S2
EC50: 31.6 µM | IC50: 110 µM

CN(/N=C\c1ccccc1Cl)C(c1ccccc1Cl)N(C)/N=C/c1ccccc1Cl (stereo not drawn)
outcome: inactive

CC(=O)NC(C(=O)NC(C)C(=O)N1CCCC1C(=O)O)C(C)C (stereo not drawn) (Ac-Val-Ala-Pro-OH; configuration not given here)
EC50: > 200 µM | IC50: > 200 µM

CC1CCCc2c(C#N)c(N)nc(-c3ccc(Cl)cc3)c21 (stereo not drawn)
EC50: > 200 µM | IC50: 26.9 µM

C(=N\Nc1ccccn1)/c1ccccn1.C(=N\Nc1ccccn1)/c1ccccn1.[Cl-].[Fe+3]
EC50: > 200 µM | IC50: 117 µM

COc1ccc(/C=C/C(=O)/C=C/c2ccc(OC)cc2)cc1
EC50: > 200 µM | IC50: 72.4 µM

Oc1[nH]c2ccccc2c1N=Nc1nc(-c2ccc(Br)cc2)cs1
EC50: > 200 µM | IC50: 120 µM

N#CC(/C(CCCC(=O)Nc1cccc([N+](=O)[O-])c1)=N/NC(=O)c1cc2ccccc2cc1O)c1ccccc1 (stereo not drawn)
EC50: > 35.5 µM | IC50: 15.5 µM

O=C(c1ccccc1)c1c(C(=O)c2ccccc2)c(-c2ccccc2)c2c(-c3ccccc3)sc(-c3ccccc3)c2c1-c1ccccc1
outcome: inactive

CCOC(=O)/C=C1\c2ccccc2C(=O)N1CC(=O)OCC
outcome: inactive

CC(=O)Nc1ccc(C=Nc2ccc(SSc3ccc(N=Cc4ccc(NC(C)=O)cc4)cc3)cc2)cc1
EC50: > 200 µM | IC50: 23.4 µM

O=C(COc1ccccc1Cl)N1N=C(c2ccc(Cl)cc2)CC1(O)c1ccccc1 (stereo not drawn)
EC50: > 4.57 µM | IC50: > 4.57 µM

CC1CCCCC12C(C#N)(C#N)C2(C#N)C#N (stereo not drawn)
EC50: > 20 µM | IC50: 9.55 µM

CSC1=NS(=O)(=O)c2cc(C(=O)NN(C)C(=O)c3cc4c(cc3Cl)SC(SC)=NS4(=O)=O)c(Cl)cc2S1
EC50: > 200 µM | IC50: 91.2 µM

O=S1(=O)C(c2ccccc2)=C(O)c2cc3ccccc3nc21
outcome: inactive

Cc1cc(=O)oc2c3c(cc(OCc4ccccc4)c12)OC(C)(C)[C@H](OC(=O)C12CCC(C)(C(=O)O1)C2(C)C)[C@@H]3OC(=O)C12CCC(C)(C(=O)O1)C2(C)C (stereo partly drawn)
EC50: > 200 µM | IC50: 44.7 µM

O=C1CSCN1N1CSCC1=O
EC50: > 200 µM | IC50: > 200 µM

COc1ccc(CC(=O)NC(C)Cc2ccc(OC)c(OC)c2)cc1OC (stereo not drawn)
outcome: inactive

C[C@H]1CC[C@H]([C@@H](C)[C@H]2[C@@H](O)C[C@H]3[C@@H]4CC[C@H]5C[C@@H](O)CC[C@]5(C)[C@H]4CC[C@]23C)NC1
EC50: > 200 µM | IC50: 12.6 µM

N/N=C(/Cc1ccccc1)NNC(N)=S
EC50: > 427 µM | IC50: 263 µM

O=C(O)c1ccccc1C(=O)c1ccc(F)cc1
outcome: inactive

COC(=O)c1c2c(cc3c1CC1(Cc4cc5c(c(C=O)c4C1)CCC5)C3)CCC2 (stereo not drawn)
EC50: > 200 µM | IC50: 20 µM

NCCCn1c(Cl)nc2ccccc21
EC50: > 200 µM | IC50: > 200 µM

O=C(O)CSCCOCCSCC(=O)O
EC50: > 708 µM | IC50: > 708 µM

CCOC(=O)c1nc2cc(C(F)(F)F)ccc2nc1Nc1ccc(F)cc1
EC50: > 200 µM | IC50: 12.3 µM

Cc1cc(N(CCC#N)CCC#N)ccc1/C(N=Nc1ccc([N+](=O)[O-])cc1)=N\NC(=O)c1cc(Cl)ccc1C(=O)c1ccccc1
EC50: > 200 µM | IC50: 11.2 µM

N#Cc1ccccc1-c1nc2c3c(c(N)ccc3n1)C(=O)c1ccccc1-2
EC50: > 200 µM | IC50: 40.7 µM

CNC(=O)N(CCCC(NC(C)=O)C(=O)NCc1ccccc1)Cc1ccccc1 (stereo not drawn)
EC50: > 603 µM | IC50: > 603 µM

CC(=O)OC[C@@H](OC(C)=O)[C@H](OC(C)=O)[C@@H]1OC(C)(C)O[C@@H]1C1SCCCS1
EC50: > 200 µM | IC50: > 200 µM

COc1cc2c3c(cccc3c1)C(=O)N(CCN(C)C)C2=O
EC50: > 200 µM | IC50: 1.26 µM

O=S(=O)(NC1CCCCC1)c1ccc2c(c1)OCCOCCOCCOCCO2
EC50: > 200 µM | IC50: > 200 µM

CC/C=C/c1cc2cc[nH]c2c2c1C(C)C[C@@H]2C (stereo partly drawn)
outcome: inactive

O=C(Cc1ccccc1)c1ccc(O)cc1O
EC50: > 200 µM | IC50: 85.1 µM

O=C1OCOC2(CCCC2)C1c1ccccc1 (stereo not drawn)
EC50: > 200 µM | IC50: 120 µM

C/C(=C1/CCC/C(=C(/C)c2ccccc2)C1=O)c1ccccc1
EC50: > 9.12 µM | IC50: > 9.12 µM

C[C@@H]1C(=O)OCC2=C3C[C@@H](CC[C@@]3(C)C=CC2=O)[C@H](C)C(=O)OCC2=C3C[C@H]1CC[C@@]3(C)C=CC2=O
EC50: > 24.5 µM | IC50: 21.4 µM

OCCC1(O)CCC(O)CC1 (stereo not drawn)
outcome: inactive

CC(C)=NOC(=O)OC[C@H]1O[C@@H](n2cnc3c(N)ncnc32)C(O)C1O (stereo partly drawn)
EC50: > 200 µM | IC50: > 200 µM

NC(CCCCCP(=O)(O)O)C(=O)O (stereo not drawn)
EC50: > 200 µM | IC50: > 200 µM

COc1ccc(N2C(=O)/C(=C\c3ccc(N(CCC#N)CCC#N)cc3)N=C2COc2ccccc2)cc1
EC50: > 26.9 µM | IC50: > 26.9 µM

Cc1cc(S(=O)(=O)NC2=NC(c3ccccc3)c3ccccc3N2)c(S)cc1Cl (stereo not drawn)
EC50: > 200 µM | IC50: > 200 µM

CC(C)(O)/C=C/C(=O)[C@](C)(O)[C@H]1[C@H](O)C[C@@]2(C)[C@@H]3CC=C4[C@@H](C=C(O)C(=O)C4(C)C)[C@]3(C)C(=O)C[C@]12C
EC50: > 0.2 µM | IC50: 0.0324 µM

CCOC(=O)C1=NNC(C(=O)c2ccccc2)C1c1ccccc1 (stereo not drawn)
EC50: > 200 µM | IC50: 2.19 µM

S=C1SC(=Nc2ccccc2)C(=Nc2ccccc2)N1c1ccccc1
EC50: > 200 µM | IC50: 91.2 µM

CCOC(=O)C(NC(=O)OCc1ccccc1)C(=O)O (stereo not drawn)
EC50: > 200 µM | IC50: > 200 µM

C[C@]12CCC[C@H](Cl)C1(O)C[C@H](C(=O)O)CC2 (stereo partly drawn)
outcome: inactive

O=C1CCCC2=C1C(c1ccncc1)Nc1ccccc1N2 (stereo not drawn)
EC50: > 200 µM | IC50: > 200 µM

O=[N+]([O-])c1ccc(NC(=S)N=Nc2c(O)[nH]c3ccccc23)cc1
EC50: > 200 µM | IC50: 15.5 µM

CN(C)c1ccc(/C=C(\C#N)c2cccc(I)c2)cc1
EC50: > 2 µM | IC50: 0.129 µM

O=S(=O)(O)CCO
EC50: > 200 µM | IC50: > 200 µM

COc1ccc2[nH]c3c(cnn4cnnc34)c2c1
outcome: inactive

CS(=O)(=O)OCCN(CCOS(C)(=O)=O)c1ccc(C=Nc2ccc3oc(=O)ccc3c2)cc1
EC50: > 135 µM | IC50: 1.02 µM

Clc1ccc(Cl)c(N=Nc2cc3c4c(c2)CCN4CCC3)c1
EC50: > 100 µM | IC50: > 100 µM

CCOC(=O)CNCc1cc(=O)[nH]c2cc(Cl)ccc12
EC50: > 200 µM | IC50: 40.7 µM

COc1c2occc2c(Cl)c2ccc(=O)oc12
EC50: > 70.8 µM | IC50: 43.7 µM

CCOC(=O)/C(O)=C/c1cc(=O)n(C)c2ccccc12
EC50: > 200 µM | IC50: > 200 µM

CCC12C=CCN3CCC4(c5cc(C6(C(=O)OC)CCCCCc7c6[nH]c6ccccc76)c(OC)cc5N(C)C4C(O)(C(=O)OC)C1OC(C)=O)C32 (stereo not drawn)
EC50: > 25.1 µM | IC50: 4.37 µM

CC(=O)CC(O)(C(F)(F)Cl)C(F)(F)Cl
outcome: inactive

CCOc1cc2c(cc1O)CC[C@@H]1[C@@H]2CC[C@]2(C)C(N)CC[C@@H]12 (stereo partly drawn)
EC50: > 200 µM | IC50: 1.2 µM

CCn1c(SCc2nnc(Nc3ccccc3)s2)nc2ccccc2c1=O
EC50: > 200 µM | IC50: 69.2 µM

Cc1ccc(NC(=O)C(=O)C2C(=O)NC(=O)NC2=O)cc1C
EC50: > 117 µM | IC50: > 117 µM

C/C(CC(O)(C(F)(F)F)C(F)(F)F)=N\O
EC50: > 200 µM | IC50: > 200 µM

O=c1c2cc(Br)ccc2oc2ccc(Br)cc12
outcome: inactive

Cc1ccc(S(=NS(=O)(=O)c2ccc(C)cc2)c2ccc(C)cc2)cc1
EC50: > 49 µM | IC50: > 49 µM

COC(=O)/C(=N/NC(=O)C[N+](C)(C)C)C(C(=O)OC)C(=O)C(=O)Nc1ccc(F)cc1 (stereo not drawn)
EC50: > 145 µM | IC50: > 145 µM

COC1OC(COC(=O)c2ccccc2)C(OC(=O)c2ccccc2)C1NC(C)=O (stereo not drawn)
EC50: > 200 µM | IC50: > 200 µM

Cc1ccc(C(CO)(CO)OC(CO)(CO)c2ccc(C)c(C)c2)cc1C
EC50: > 200 µM | IC50: > 200 µM

COC(=O)c1cc(C(=CCC(=O)O)c2cc(Cl)c(OC)c(C(=O)OC)c2)cc(Cl)c1OC
EC50: > 200 µM | IC50: 97.7 µM

Cc1ccc(NC(=O)SCCC(=O)O)cc1NC(=O)SCCC(=O)O
outcome: inactive

O=[N+]([O-])c1cccc2nccc(NCCN3CCOCC3)c12
EC50: > 200 µM | IC50: 10 µM

COc1ccc2[nH]cc(CCNC(C)=O)c2c1
EC50: > 200 µM | IC50: > 200 µM

N#CC12C3C4CC5C6C4C1C6C(O)(C53)N2Cc1ccccc1 (stereo not drawn)
EC50: > 447 µM | IC50: 257 µM

COc1ccc(C(=O)NC(=S)Nc2ccccc2)cc1
EC50: > 34.7 µM | IC50: > 34.7 µM

COc1cccc(OC)c1SSCCN
EC50: > 200 µM | IC50: 24.5 µM

NC1(C(=O)O)CCCC1
EC50: > 724 µM | IC50: > 724 µM

CCOC(=O)/C=C1\C(=O)N(Cc2ccccc2)c2ccccc21
EC50: > 200 µM | IC50: 1 µM

CP1CCC(O)(c2ccccc2)CC1 (stereo not drawn)
EC50: > 200 µM | IC50: > 200 µM

CCOC(=O)C(NCc1cccc(C(F)(F)F)c1)(NC(=O)c1ccccc1)C(F)(F)F (stereo not drawn)
EC50: > 200 µM | IC50: 18.6 µM

Cc1ccc2c(c1)C(=O)/C(=C1/CCc3ccc(C)cc31)C2
EC50: > 200 µM | IC50: > 200 µM

CC(C)CCCC(C)[C@H]1CC[C@H]2[C@@H]3CC[C@H]4C[C@@H](CCC=C(c5cc(Cl)c(OC(=O)c6ccccc6)c(C(=O)O)c5)c5cc(Cl)c(OC(=O)c6ccccc6)c(C(=O)O)c5)CC[C@]4(C)[C@H]3CC[C@]12C (stereo partly drawn)
EC50: > 200 µM | IC50: > 200 µM

Cc1cccc(Nc2cn(CCOc3ccccc3)c(=O)n(CCOc3ccccc3)c2=O)c1
EC50: > 200 µM | IC50: > 200 µM

Cc1nc2ccccc2c(=O)n1N1C2CCCC21 (stereo not drawn)
EC50: > 200 µM | IC50: > 200 µM
